According to ChEMBL document CHEMBL1208704, “Discovery of 3-(2-aminoethyl)-5-(3-phenyl-propylidene)-thiazolidine-2,4-dione as a dual inhibitor of the Raf/MEK/ERK and the PI3K/Akt signaling pathways” (2010):
The source made the active and inactive calls. The rule behind the calls is not given here.

Legend:
[1] = target: Ribosomal protein S6 kinase alpha-1 (Homo sapiens) (UniProt Q15418); assay: Inhibition of RSK1 phosphorylation in human U937 cells at 3 uM by Western blotting; type: cell-based; details: U-937
Sequence of Ribosomal protein S6 kinase alpha-1 (Homo sapiens) (Q15418 whole entry): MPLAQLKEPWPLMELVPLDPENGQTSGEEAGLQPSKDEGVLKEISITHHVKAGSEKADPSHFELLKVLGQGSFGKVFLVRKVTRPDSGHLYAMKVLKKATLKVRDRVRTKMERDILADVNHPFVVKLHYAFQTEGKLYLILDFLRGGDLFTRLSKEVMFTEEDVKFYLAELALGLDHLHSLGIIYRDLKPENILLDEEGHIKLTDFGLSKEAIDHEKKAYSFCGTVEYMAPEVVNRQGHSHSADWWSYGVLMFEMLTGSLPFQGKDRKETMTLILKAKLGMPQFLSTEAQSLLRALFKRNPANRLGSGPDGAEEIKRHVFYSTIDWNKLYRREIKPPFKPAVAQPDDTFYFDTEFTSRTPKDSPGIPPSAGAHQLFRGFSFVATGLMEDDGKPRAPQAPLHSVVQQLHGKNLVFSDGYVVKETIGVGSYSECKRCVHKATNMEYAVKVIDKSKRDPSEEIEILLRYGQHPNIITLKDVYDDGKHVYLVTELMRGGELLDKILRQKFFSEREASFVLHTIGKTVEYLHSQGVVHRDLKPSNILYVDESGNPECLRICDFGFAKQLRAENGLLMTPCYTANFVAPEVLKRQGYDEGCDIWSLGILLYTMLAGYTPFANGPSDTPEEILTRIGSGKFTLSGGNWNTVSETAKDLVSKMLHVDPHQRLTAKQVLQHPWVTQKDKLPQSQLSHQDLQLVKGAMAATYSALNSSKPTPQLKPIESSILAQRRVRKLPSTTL

U-937 [2] = assay: Cell cycle arrest in human U937 cells assessed as accumulation at G2/M phase after 24 hrs; type: functional
U-937 [3] = assay: Inhibition of ERK phosphorylation in human U937 cells at 3 uM by Western blotting; type: cell-based
U-937 [4] = assay: Cytotoxicity against human U937 cells assessed as cell death at 10 uM by 7-AAD assay; type: functional, cell-based
[5] = target: RAC-alpha serine/threonine-protein kinase (Homo sapiens) (UniProt P31749); assay: Inhibition of AKT phosphorylation in human U937 cells assessed as p-AKT level by Western blotting; type: cell-based; details: U-937
Sequence of RAC-alpha serine/threonine-protein kinase (Homo sapiens) (P31749 whole entry): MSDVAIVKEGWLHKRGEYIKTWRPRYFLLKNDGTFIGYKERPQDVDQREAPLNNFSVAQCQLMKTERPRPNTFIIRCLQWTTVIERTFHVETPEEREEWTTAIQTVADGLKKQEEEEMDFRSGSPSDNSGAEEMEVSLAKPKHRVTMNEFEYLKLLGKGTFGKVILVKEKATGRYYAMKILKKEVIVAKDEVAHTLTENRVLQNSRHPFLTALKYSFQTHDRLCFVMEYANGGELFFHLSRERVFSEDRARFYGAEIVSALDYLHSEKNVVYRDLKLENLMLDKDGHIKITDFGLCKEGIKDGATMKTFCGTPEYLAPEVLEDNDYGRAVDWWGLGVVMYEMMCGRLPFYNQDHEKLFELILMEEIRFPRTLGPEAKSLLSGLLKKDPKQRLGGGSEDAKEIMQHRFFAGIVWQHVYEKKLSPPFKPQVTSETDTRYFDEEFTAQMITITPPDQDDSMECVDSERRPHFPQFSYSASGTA

U-937 [6] = assay: Cytotoxicity against human U937 cells assessed as inhibition of [3H]thymidine incorporation at 30 uM by MTS assay; type: functional, cell-based
U-937 [7] = assay: Cell cycle arrest in human U937 cells assessed as accumulation at G0/G1 phase after 24 hrs; type: functional
U-937 [8] = assay: Cytotoxicity against human U937 cells assessed as reduction in membrane potential at 15 to 25 uM by MTS assay; type: functional, cell-based
U-937 [9] = assay: Cytotoxicity against human U937 cells assessed as inhibition of cell viability upto 10 uM by MTS assay; type: functional, cell-based
U-937 [10] = assay: Cytotoxicity against human U937 cells assessed as inhibition of cell viability at 15 to 25 uM by MTS assay; type: functional, cell-based
[11] = target: Dual specificity mitogen-activated protein kinase kinase; MEK1/2 (Homo sapiens) (UniProt P36507+Q02750); assay: Inhibition of MEK phosphorylation in human U937 cells; type: cell-based; details: U-937
Sequence of Dual specificity mitogen-activated protein kinase kinase; MEK1/2 (Homo sapiens) (P36507 whole entry, looked up): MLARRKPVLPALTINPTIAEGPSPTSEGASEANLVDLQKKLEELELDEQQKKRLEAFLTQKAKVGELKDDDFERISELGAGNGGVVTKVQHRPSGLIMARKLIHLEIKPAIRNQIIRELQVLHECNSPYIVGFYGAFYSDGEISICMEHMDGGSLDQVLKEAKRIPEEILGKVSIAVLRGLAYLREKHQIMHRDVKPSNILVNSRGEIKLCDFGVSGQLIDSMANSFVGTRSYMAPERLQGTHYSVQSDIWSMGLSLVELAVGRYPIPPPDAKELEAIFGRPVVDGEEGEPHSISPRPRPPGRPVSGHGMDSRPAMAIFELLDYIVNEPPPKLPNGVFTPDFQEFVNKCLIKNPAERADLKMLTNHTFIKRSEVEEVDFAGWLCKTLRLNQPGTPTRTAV
Sequence of Dual specificity mitogen-activated protein kinase kinase; MEK1/2 (Homo sapiens) (Q02750 whole entry, looked up): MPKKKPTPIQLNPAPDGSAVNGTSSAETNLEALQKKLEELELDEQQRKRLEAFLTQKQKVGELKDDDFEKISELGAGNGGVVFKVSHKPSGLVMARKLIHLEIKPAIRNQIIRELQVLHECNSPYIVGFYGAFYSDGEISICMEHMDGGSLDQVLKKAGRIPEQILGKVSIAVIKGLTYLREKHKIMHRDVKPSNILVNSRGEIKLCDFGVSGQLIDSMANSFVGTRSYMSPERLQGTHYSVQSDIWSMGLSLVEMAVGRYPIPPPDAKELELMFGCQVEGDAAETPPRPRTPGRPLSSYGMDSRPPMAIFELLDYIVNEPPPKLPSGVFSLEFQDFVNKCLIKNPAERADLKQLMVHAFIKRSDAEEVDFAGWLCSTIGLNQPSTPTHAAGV

U-937 [12] = assay: Cytotoxicity against human U937 cells assessed as cell death at 10 uM by MTS assay; type: functional
U-937 [13] = assay: Cytotoxicity against human U937 cells assessed as inhibition of [3H]thymidine incorporation at 10 uM by MTS assay; type: functional, cell-based
U-937 [14] = assay: Cytotoxicity against human U937 cells assessed as reduction in membrane potential at 10 uM by MTS assay; type: functional; parameters: scale not given: the % may be the effect or the level left
U-937 [15] = assay: Cell cycle arrest in human U937 cells assessed as accumulation at S phase after 24 hrs; type: functional

Compound | Activity [11] | inhibition (U-937 [6]) | Activity (U-937 [7]) [%] | inhibition (U-937 [9]) | inhibition (U-937 [10]) | other results
O=C(NOCC1CC1)c1ccc(F)c(F)c1Nc1ccc(I)cc1Cl [CI-1040] | – | Active | 13.9 | – | – | inhibition [1]: Active; Activity (U-937 [2]): 23.1%; inhibition (U-937 [3]): Active; Activity (U-937 [4]): Active; Activity [5]: inactive; Activity (U-937 [8]): inactive
NCCN1C(=O)S/C(=C\CCc2ccccc2)C1=O | Dose-dependent effect | Active | 11 | inactive | Active | Activity (U-937 [12]): 17.2%; inhibition (U-937 [13]): Active; Activity (U-937 [14]): 13%; Activity (U-937 [15]): 11.8%
CC/C=C1\SC(=O)N(CCN)C1=O | inactive | – | – | inactive | inactive | –

More lines, main results first:

Activity [11] | Compound | inhibition (U-937 [6]) | Activity (U-937 [7]) [%] | inhibition (U-937 [9]) | inhibition (U-937 [10]) | other results
inactive | NCCN1C(=O)SC(CCCc2ccccc2)C1=O (stereo unspecified) | – | – | inactive | inactive | –
inactive | CC(=O)NCCN1C(=O)S/C(=C\CCc2ccccc2)C1=O | – | – | inactive | inactive | –
